# In the supplement of paper PMC11208160:
# Assay: recombinant UMI read abundance after kanamycin selection (control-corrected) (log10(CPM+1)); higher = more efficient recombination; extreme values may be limits of the assay; sequences stand for … in AGTGCAGAGAAAATCGGCCAGTTTTCTCTGCCTGCAGTCCGCATGCCGTGGGACCCCTTGGGTTCTAACCTGTTGCCTAGATTTATGCAGCGGACTGCCTTTCTCCCAAAGTGATAAACCGG…AGGTTGGTTTCACT; site = the 11-nt donor
# How it was run: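 The measure is log10(CPM+1) for recombinant UMIs. These were PCR-amplified across the donor–target junction and sequenced after Escherichia coli carrying a donor and donor-binding-loop pair library and a target plasmid with T7-inducible IS621 bridge recombinase was plated on IPTG (0.07 mM) plus kanamycin or unselected. CPM were averaged over two replicates and scaled by control-derived factors.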
# 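Further: IS621 bridge recombinase in Escherichia coli cells against a fixed T5 target plasmid.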
row,Sequence,recombinant UMI read abundance (log10)
1,CTACTCCCATGGACCGGTTTTCCCGGTAATCCGTATTTGGC (site CTACTCCCTGC),1.59
2,CTACTCTCATGGACCGGTTTTCCCGGTAATCCGTATTTGTA (site CTACTCTCTTA),3.26
3,CTACTCTCATGGACCGGTTTTCCCGGTAATCCGTATTTGTA (site CTCCTCTCTTA),1.19
4,CTACTCTCATGGACCGGTTTTCCCGGTAATCCGTATTTGTA (site CTGCTCTCTTA),1.32
5,CTACTCTCATGGACCGGTTTTCCCGGTAATCCGTATTTGTA (site CTTCTCTCTTA),1.42
6,CTACTGTCATGGACCGGTTTTCCCGGTAATCCGTATTTGTA (site CTACTGTCTTA),3.13
7,CTAGGTACATGGACCGGTTTTCCCGGTAATCCGTATTTGAC (site ATAGGTACTGT),0
8,CTAGGTACATGGACCGGTTTTCCCGGTAATCCGTATTTGAC (site CTAGGTACTGT),2.1
9,CTAGGTACATGGACCGGTTTTCCCGGTAATCCGTATTTGAC (site GTAGGTACTGT),0
10,CTAGGTACATGGACCGGTTTTCCCGGTAATCCGTATTTGAC (site TTAGGTACTGT),0
11,CTAGTAACATGGACCGGTTTTCCCGGTAATCCGTATTTGAG (site CTAGTAACTCT),2.89
12,CTAGTAACATGGACCGGTTTTCCCGGTAATCCGTATTTGAG (site CTAGTATCTGT),0
13,CTAGTAACATGGACCGGTTTTCCCGGTAATCCGTATTTGTC (site CTAGTAACTGA),2.78
14,CTAGTAACATGGACCGGTTTTCCCGGTAATCCGTATTTGTC (site CTAGTATCTGT),0
15,CTAGTACCATGGACCGGTTTTCCCGGTAATCCGTATTTGAC (site CTAGTAACTGT),0
16,CTAGTACCATGGACCGGTTTTCCCGGTAATCCGTATTTGAC (site CTAGTACCTGT),0
17,CTAGTACCATGGACCGGTTTTCCCGGTAATCCGTATTTGAC (site CTAGTAGCTGT),0.415
18,CTAGTACCATGGACCGGTTTTCCCGGTAATCCGTATTTGAC (site CTAGTATCTGT),2.88
19,CTAGTATCATGGACCGGTTTTCCCGGTAATCCGTATTTGAA (site CTAGTATCTAT),2.59
20,CTAGTATCATGGACCGGTTTTCCCGGTAATCCGTATTTGAA (site CTAGTATCTCT),2.4
21,CTAGTATCATGGACCGGTTTTCCCGGTAATCCGTATTTGAA (site CTAGTATCTGT),1.91
22,CTAGTATCATGGACCGGTTTTCCCGGTAATCCGTATTTGAA (site CTAGTATCTTT),2.92
23,CTAGTATCATGGACCGGTTTTCCCGGTAATCCGTATTTGAG (site CTAGTATCTAT),2.35
24,CTAGTATCATGGACCGGTTTTCCCGGTAATCCGTATTTGAG (site CTAGTATCTCT),2.61
25,CTAGTATCATGGACCGGTTTTCCCGGTAATCCGTATTTGAG (site CTAGTATCTGT),1.68

row,Sequence,recombinant UMI read abundance (log10)
1,CTAGTATCATGGACCGGTTTTCCCGGTAATCCGTATTTGAG (site CTAGTATCTTT),2.29
2,CTAGTATCATGGACCGGTTTTCCCGGTAATCCGTATTTGTG (site CTAGTATCTCA),2.97
3,CTAGTATCATGGACCGGTTTTCCCGGTAATCCGTATTTGTG (site CTAGTATCTGT),0
4,CTAGTCACATGGACCGGTTTTCCCGGTAATCCGTATTTGGG (site CAAGTCACTCC),0.00773
5,CTAGTCACATGGACCGGTTTTCCCGGTAATCCGTATTTGGG (site CCAGTCACTCC),0.0093
6,CTAGTCACATGGACCGGTTTTCCCGGTAATCCGTATTTGGG (site CGAGTCACTCC),0.00732
7,CTAGTCACATGGACCGGTTTTCCCGGTAATCCGTATTTGGG (site CTAGTCACTCC),0.00791
8,CTAGTGCCATGGACCGGTTTTCCCGGTAATCCGTATTTGAC (site CTAGTATCTGT),0.948
9,CTAGTGCCATGGACCGGTTTTCCCGGTAATCCGTATTTGAC (site CTAGTGCCTGT),0.95
10,CTAGTTTCATGGACCGGTTTTCCCGGTAATCCGTATTTGAC (site CTAGTATCTGT),2.19
11,CTAGTTTCATGGACCGGTTTTCCCGGTAATCCGTATTTGAC (site CTAGTCTCTGT),1.74
12,CTAGTTTCATGGACCGGTTTTCCCGGTAATCCGTATTTGAC (site CTAGTGTCTGT),0
13,CTAGTTTCATGGACCGGTTTTCCCGGTAATCCGTATTTGAC (site CTAGTTTCTGT),2.05
14,CTATAACCATGGACCGGTTTTCCCGGTAATCCGTATTTGGA (site CTATAACCTTC),0.0031
15,CTATCATCATGGACCGGTTTTCCCGGTAATCCGTATTTGCT (site CAATCATCTAG),0.957
16,CTATCATCATGGACCGGTTTTCCCGGTAATCCGTATTTGCT (site CCATCATCTAG),0.932
17,CTATCATCATGGACCGGTTTTCCCGGTAATCCGTATTTGCT (site CGATCATCTAG),0
18,CTATCATCATGGACCGGTTTTCCCGGTAATCCGTATTTGCT (site CTATCATCTAG),2.06
19,CTATCGACATGGACCGGTTTTCCCGGTAATCCGTATTTGTT (site CAATCGACTAA),0.0124
20,CTATCGACATGGACCGGTTTTCCCGGTAATCCGTATTTGTT (site CCATCGACTAA),0.0135
21,CTATCGACATGGACCGGTTTTCCCGGTAATCCGTATTTGTT (site CGATCGACTAA),0.0084
22,CTATCGACATGGACCGGTTTTCCCGGTAATCCGTATTTGTT (site CTATCGACTAA),1.1
23,CTATGACCATGGACCGGTTTTCCCGGTAATCCGTATTTGAG (site CTATGACCTCT),0.00436
24,CTATGATCATGGACCGGTTTTCCCGGTAATCCGTATTTGAC (site CTAGTATCTGT),0
25,CTATGATCATGGACCGGTTTTCCCGGTAATCCGTATTTGAC (site CTATGATCTGT),2.73

row,Sequence,recombinant UMI read abundance (log10)
1,CTATGCACATGGACCGGTTTTCCCGGTAATCCGTATTTGTA (site ATATGCACTTA),0.00544
2,CTATGCACATGGACCGGTTTTCCCGGTAATCCGTATTTGTA (site CTATGCACTTA),1.82
3,CTATGCACATGGACCGGTTTTCCCGGTAATCCGTATTTGTA (site GTATGCACTTA),0.00869
4,CTATGCACATGGACCGGTTTTCCCGGTAATCCGTATTTGTA (site TTATGCACTTA),0.013
5,CTATGTTCATGGACCGGTTTTCCCGGTAATCCGTATTTGTC (site CTATGTTCTGA),2.29
6,CTATTATCATGGACCGGTTTTCCCGGTAATCCGTATTTGAA (site CTATTATCTTT),1.79
7,CTATTATCATGGACCGGTTTTCCCGGTAATCCGTATTTGGC (site CTAGTATCTGT),0
8,CTATTATCATGGACCGGTTTTCCCGGTAATCCGTATTTGGC (site CTATTATCTGC),2.56
9,CTATTTCCATGGACCGGTTTTCCCGGTAATCCGTATTTGCG (site CTATTTCCTCG),0.264
10,CTCAAATCATGGACCGGTTTTCCCGGTAATCCGTATTTGAA (site CTCAAATCTTT),0.789
11,CTCAATCCATGGACCGGTTTTCCCGGTAATCCGTATTTGTT (site CGGAATCCTAA),0
12,CTCAATCCATGGACCGGTTTTCCCGGTAATCCGTATTTGTT (site CTCAATCCTAA),1.41
13,CTCAATGCATGGACCGGTTTTCCCGGTAATCCGTATTTGGG (site CTCAATGCTCC),0
14,CTCAGATCATGGACCGGTTTTCCCGGTAATCCGTATTTGCA (site CTCAGATCTTG),1.82
15,CTCCAGTCATGGACCGGTTTTCCCGGTAATCCGTATTTGAG (site CTCCAGTCTCT),0.842
16,CTCCCAACATGGACCGGTTTTCCCGGTAATCCGTATTTGAG (site CTCCCAACTCT),0.687
17,CTCCCAACATGGACCGGTTTTCCCGGTAATCCGTATTTGAG (site CTCCCCACTCT),0.00702
18,CTCCCAACATGGACCGGTTTTCCCGGTAATCCGTATTTGAG (site CTCCCGACTCT),0.0167
19,CTCCCAACATGGACCGGTTTTCCCGGTAATCCGTATTTGAG (site CTCCCTACTCT),0.00578
20,CTCCCTCCATGGACCGGTTTTCCCGGTAATCCGTATTTGAG (site CTCCCTACTCT),0.00615
21,CTCCCTCCATGGACCGGTTTTCCCGGTAATCCGTATTTGAG (site CTCCCTCCTCT),0.0401
22,CTCCCTCCATGGACCGGTTTTCCCGGTAATCCGTATTTGAG (site CTCCCTGCTCT),0.009
23,CTCCCTCCATGGACCGGTTTTCCCGGTAATCCGTATTTGAG (site CTCCCTTCTCT),0.0108
24,CTCCTAACATGGACCGGTTTTCCCGGTAATCCGTATTTGGA (site CTACTAACTTC),0.00356
25,CTCCTAACATGGACCGGTTTTCCCGGTAATCCGTATTTGGA (site CTCCTAACTTC),0.655
